Reference: patent publication US10975068B2, “6-aminopyridin-3-yl thiazoles as modulators of RORγT” (Janssen Pharmaceutica NV, priority 2016, dated 2021)
Like-named read-outs stand apart in the source and are kept apart here. Marks after values point to notes of the source that are not given here.

Tests used:
[1] = target: human RORγt ligand binding domain (RORγt LBD) (Homo sapiens (Human), UniProt P51449); assay: RORγt ThermoFluor® assay (thermal shift binding); details: read-out: ThermoFluor® Assay, Kd
Summary of the method: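 His-tagged human RORγt LBD (0.065 mg/mL) with 60 μM 1,8-ANS in 100 mM Hepes pH 7.0, 10 mM NaCl, 2.5 mM GSH, 0.002% Tween-20 was heated at 1 °C/min.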

[2] = target: full-length human RORγt (Homo sapiens (Human), UniProt P51449); assay: RORγt (full-length human) reporter assay, Conditions B or C; format: cell-based; details: for IC50: read-out: RORγt (FL) Reporter Assay B or C, IC50; for RORγt (FL) Reporter Assay B or C, % inhibition (value marked *): marked *: footnote not given
Summary of the method: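 HEK293T cells transiently co-transfected with GAL4-DBD–full-length human RORγt (nt 142-1635, NM_001001523.1) plus GAL4-firefly and CMV-Renilla luciferase reporters; compounds added 4-6 h post-transfection for 16-20 h in 1.3% FBS, 0.1% DMSO. Firefly signal normalized to DMSO and saturating reference compound, then to Renilla; IC50 from concentration plots.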

[3] = at 3 μM compound concentration, read-out: RORγt (FL) Reporter Assay B or C, % inhibition

full-length human RORγt, sequence (P51449 other isoform, or with tags, fused parts or gaps): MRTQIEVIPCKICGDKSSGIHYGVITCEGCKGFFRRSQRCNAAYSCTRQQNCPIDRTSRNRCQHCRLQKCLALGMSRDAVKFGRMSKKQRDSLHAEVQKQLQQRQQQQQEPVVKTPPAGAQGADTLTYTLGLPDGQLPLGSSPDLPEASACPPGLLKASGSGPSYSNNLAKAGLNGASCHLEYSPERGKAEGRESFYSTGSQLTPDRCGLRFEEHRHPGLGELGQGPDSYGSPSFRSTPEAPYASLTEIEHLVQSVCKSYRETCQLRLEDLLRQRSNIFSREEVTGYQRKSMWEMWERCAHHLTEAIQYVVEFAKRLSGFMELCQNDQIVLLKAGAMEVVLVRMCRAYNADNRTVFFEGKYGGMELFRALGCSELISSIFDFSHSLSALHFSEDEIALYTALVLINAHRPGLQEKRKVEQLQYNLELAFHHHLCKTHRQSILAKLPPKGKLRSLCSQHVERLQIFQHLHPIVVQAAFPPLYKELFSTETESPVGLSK
human RORγt ligand binding domain (RORγt LBD), sequence (P51449 other isoform, or with tags, fused parts or gaps): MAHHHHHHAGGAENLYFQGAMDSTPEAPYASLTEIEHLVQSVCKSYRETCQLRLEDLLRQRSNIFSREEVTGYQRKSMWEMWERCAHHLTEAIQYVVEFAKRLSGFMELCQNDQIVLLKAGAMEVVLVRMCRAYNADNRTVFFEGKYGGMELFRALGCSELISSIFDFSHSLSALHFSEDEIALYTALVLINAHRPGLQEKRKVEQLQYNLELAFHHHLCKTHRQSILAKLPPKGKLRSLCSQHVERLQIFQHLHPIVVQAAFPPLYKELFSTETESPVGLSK

Structure (SMILES) | Kd [1] | inhibition at 3 µM [2, 3] | IC50 [2] | RORγt (FL) Reporter Assay B or C, % inhibition (value marked *) ([2]; Conditions B or C) | IC50 ([2]; Conditions B or C) | other results
CC[C@H](Nc1cc(C(F)F)c(-c2sc(C(=O)NC3CN(C(C)=O)C3)nc2C(=O)N2CCC[C@@H]2C)cn1)C(F)(F)F [Example 382, N-(1-Acetylazetidin-3-yl)-5-[4-(difluoromethyl)-6-[[(1S)-1-(trifluoromethyl)propyl]amino]-3-pyridyl]-4-[(2S)-2-methylpyrrolidine-1-carbonyl]thiazole-2-carboxamide] | 47 nM | 107% | 300 nM |  |  | 
C[C@H]1CCCN1C(=O)c1nc(C(=O)NCC(C)(O)C(F)(F)F)sc1-c1cnc(NC(C)(C)C)cc1C(F)(F)F (single isomer, unassigned) [Example 359, 5-(6-(tert-Butylamino)-4-(trifluoromethyl)pyridin-3-yl)-4-((S)-2-methylpyrrolidine-1-carbonyl)-N—((R*)-3,3,3-trifluoro-2-hydroxy-2-methylpropyl)thiazole-2-carboxamide] | 1.1 nM |  | 7.6 nM |  |  | RORγt (FL) Reporter Assay B or C, % inhibition ([2]; at 3 μM compound concentration): 125* %
CC(Nc1cc(C(F)(F)F)c(-c2sc(C(=O)NCC(C)(C)O)nc2C(=O)N2CC(F)(F)C[C@@H]2C)cn1)C1CCC1 (stereo partly drawn) [Example 161, 5-(6-((1-Cyclobutylethyl)amino)-4-(trifluoromethyl)pyridine-3-yl)-4-((S)-4,4-difluoro-2-methylpyrrolidine-1-carbonyl)-N-(2-hydroxy-2-methylpropyl)thiazole-2-carboxamide] | 0.78 nM |  |  | 106* % | 20 nM | 
C[C@H](Nc1cc(C(F)F)c(-c2sc(C(=O)N[C@@H]3CC[C@H]3O)nc2C(=O)N2CCC[C@@H]2C)cn1)C(F)(F)F (relative stereo) [Example 387, 5-(4-(Difluoromethyl)-6-(((S)-1,1,1-trifluoropropan-2-yl)amino)pyridin-3-yl)-N-(1R*,2R*)-2-hydroxycyclobutyl)-4-((S)-2-methylpyrrolidine-1-carbonyl)thiazole-2-carboxamide] | 9.9 nM | 102% | 130 nM |  |  | 
C[C@H]1CCCN1C(=O)c1nc(C(=O)N[C@@H]2CCC[C@H]2O)sc1-c1cnc(NC(C)(C)C)cc1C(F)(F)F [Example 351, 5-[6-(tert-Butylamino)-4-(trifluoromethyl)-3-pyridyl]-N-[(1R,2R)-2-hydroxycyclopentyl]-4-[(2S)-2-methylpyrrolidine-1-carbonyl]thiazole-2-carboxamide] | 0.15 nM |  | 8 nM |  |  | 
C[C@H]1CCCN1C(=O)c1nc(C(=O)NCC(C)(C)O)sc1-c1cnc(NC(C2CC2)C2CC2)cc1C(F)(F)F [Example 139, (S)-5-(6-((Dicyclopropylmethyl)amino)-4-(trifluoromethyl)pyridin-3-yl)-N-(2-hydroxy-2-methylpropyl)-4-(2-methylpyrrolidine-1-carbonyl)thiazole-2-carboxamide] | 1.1 nM |  |  | 107* % | 12 nM | 
[2H]C([2H])([2H])C(O)(CNC(=O)c1nc(C(=O)N2CCC[C@@H]2C)c(-c2cnc(NC(C)(C)C)cc2C(F)(F)F)s1)C([2H])([2H])[2H] [Example 180, (S)-5-(6-(tert-Butylamino)-4-(trifluoromethyl)pyridine-3-yl)-N-(2-hydroxy-2-(methyl-d3)propyl-3,3,3-d3)-4-(2-methylpyrrolidine-1-carbonyl)thiazole-2-carboxamide] | 1.8 nM |  |  | 113* % | 20 nM | 
C[C@H](Nc1cc(C(F)(F)F)c(-c2sc(C(=O)NCC3(O)CCC3)nc2C(=O)N2CCC[C@@H]2C)cn1)C1CC1 [Example 49, 5-(6-(((S)-1-Cyclopropylethyl)amino)-4-(trifluoromethyl)pyridin-3-yl)-N-((1-hydroxycyclobutyl)methyl)-4-((S)-2-methylpyrrolidine-1-carbonyl)thiazole-2-carboxamide] | 3.3 nM |  |  | 99* % | 7.6 nM | 
C[C@H](Nc1cc(C(F)F)c(-c2sc(C(=O)NC3CCS(=O)(=O)CC3)nc2C(=O)N2CC(F)(F)C[C@@H]2C)cn1)C(F)(F)F [Example 421, 4-[(2S)-4,4-Difluoro-2-methyl-pyrrolidine-1-carbonyl]-5-[4-(difluoromethyl)-6-[[(1S)-2,2,2-trifluoro-1-methyl-ethyl]amino]-3-pyridyl]-N-(1,1-dioxothian-4-yl)thiazole-2-carboxamide] | 1 nM |  | 64 nM |  |  | inhibition at 1 µM ([2]; at 1 μM compound concentration, read-out: RORγt (FL) Reporter Assay B or C, % inhibition): 98%
C[C@H](Nc1cc(C(F)F)c(-c2sc(C(=O)N[C@H](C)C(C)(C)O)nc2C(=O)N2C3CCC2CC3)cn1)C(F)(F)F [Example 445, 4-((1s,4s)-7-Azabicyclo[2.2.1]heptane-7-carbonyl)-5-[4-(difluoromethyl)-6-[[(1S)-2,2,2-trifluoro-1-methyl-ethyl]amino]-3-pyridyl]-N-[(1R)-2-hydroxy-1,2-dimethyl-propyl]thiazole-2-carboxamide] | 12 nM | 73% | 96 nM |  |  | 
C[C@H](Nc1cc(C(F)F)c(-c2sc(C(=O)NC3CS(=O)(=O)C3)nc2C(=O)N2CC(F)(F)C[C@@H]2C)cn1)C(F)(F)F [Example 192, 4-((S)-4,4-Difluoro-2-methylpyrrolidine-1-carbonyl)-5-(4-(difluoromethyl)-6-(((S)-1,1,1-trifluoropropan-2-yl)amino)pyridine-3-yl)-N-(1,1-dioxidothietan-3-yl)thiazole-2-carboxamide] | 2.8 nM |  |  | 101* % | 37 nM | 
C[C@H]1CCCN1C(=O)c1nc(C(=O)NCC2(O)CCC2)sc1-c1cnc(NC2CCCC2)cc1C(F)F [Example 71, (S)-5-(6-(Cyclopentylamino)-4-(difluoromethyl)pyridin-3-yl)-N-((1-hydroxycyclobutyl)methyl)-4-(2-methylpyrrolidine-1-carbonyl)thiazole-2-carboxamide] | 3.7 nM |  |  | 111* % | 13 nM | 
CC[C@H](Nc1cc(C(F)F)c(-c2sc(C(=O)NC3CCOCC3)nc2C(=O)N2CC(F)(F)C[C@@H]2C)cn1)C(F)(F)F [Example 422, 4-[(2S)-4,4-Difluoro-2-methyl-pyrrolidine-1-carbonyl]-5-[4-(difluoromethyl)-6-[[(1S)-1-(trifluoromethyl)propyl]amino]-3-pyridyl]-N-tetrahydropyran-4-yl-thiazole-2-carboxamide] | 0.62 nM | 101% | 23 nM |  |  | 
C[C@H](Nc1cc(C(F)F)c(-c2sc(C(=O)N[C@H]3CC[C@@H]3O)nc2C(=O)N2C3CCC2CC3)cn1)C(F)(F)F (relative stereo) [Example 292, 4-((1s,4s)-7-Azabicyclo[2.2.1]heptane-7-carbonyl)-5-(4-(difluoromethyl)-6-(((S)-1,1,1-trifluoropropan-2-yl)amino)pyridin-3-yl)-N-((1S*,2S*)-2-hydroxycyclobutyl)thiazole-2-carboxamide] | 6.1 nM | 106% | 40 nM |  |  | 
CC[C@@H](Nc1cc(C(F)F)c(-c2sc(C(=O)N[C@H](C)CO)nc2C(=O)N2CCC[C@@H]2C)cn1)C(F)(F)F [Example 206, 5-(4-(Difluoromethyl)-6-(((1R)-1-(trifluoromethyl)propyl)amino)-3-pyridyl)-N-((1R)-2-hydroxy-1-methyl-ethyl)-4-((2S)-2-methylpyrrolidine-1-carbonyl)thiazole-2-carboxamide] | 3.2 nM |  |  |  | 35 nM | RORγt (FL) Reporter Assay B or C, % inhibition (value marked ***) ([2]; Conditions B or C, marked ***: footnote not given): 106*** %
C[C@H]1CCCN1C(=O)c1nc(C(=O)NC2CCOCC2)sc1-c1cnc(NC(C)(C)C)cc1C(F)F [Example 412, 5-[6-(tert-Butylamino)-4-(difluoromethyl)-3-pyridyl]-4-[(2S)-2-methylpyrrolidine-1-carbonyl]-N-tetrahydropyran-4-yl-thiazole-2-carboxamide] | 3.4 nM | 127% | 37 nM |  |  | 
C[C@H]1CCCN1C(=O)c1nc(C(=O)NCC(C)(C)O)sc1-c1ccnc(NC2CCCCC2)c1C#N [Comparator Example 1, (S)-5-(3-Cyano-2-(cyclohexylamino)pyridin-4-yl)-N-(2-hydroxy-2-methylpropyl)-4-(2-methylpyrrolidine-1-carbonyl)thiazole-2-carboxamide, reference compound] | 3000 nM |  |  |  |  | IC50 ([2]; HEK293T cells): > 6000 nM
C[C@H]1CCCN1C(=O)c1nc(C(=O)NCC(C)(C)O)sc1-c1cnc(NC(C)(C)C)cc1C(F)F [Example 265, 5-[6-(tert-Butylamino)-4-(difluoromethyl)-3-pyridyl]-N-(2-hydroxy-2-methyl-propyl)-4-[(2S)-2-methylpyrrolidine-1-carbonyl]thiazole-2-carboxamide] | 6.4 nM | 98% | 75 nM |  |  | 
CC[C@H](Nc1cc(C(F)F)c(-c2sc(C(=O)N[C@H](C)C(C)(C)O)nc2C(=O)N2C3CCC2CC3)cn1)C(F)(F)F [Example 242, 4-((1s,4s)-7-Azabicyclo[2.2.1]heptane-7-carbonyl)-5-[4-(difluoromethyl)-6-[[(1S)-1-(trifluoromethyl)propyl]amino]-3-pyridyl]-N-[(1R)-2-hydroxy-1,2-dimethyl-propyl]thiazole-2-carboxamide] | 2.8 nM |  |  | 86* % | 15 nM | 
